Laboratory results reported in PubChem BioAssay AID248 (DTP/NCI, 2004).
Where “and” joins values, the source holds several entries; their conditions need not be identical. Identical values can stand only once. Toxic doses and inconclusive results are not listed. Rule as the data show it: active = T/C of 150% or more; inactive = T/C below 125%.

Test system: L1210 leukemia ip in BDF1 mice, survival T/C
Experiment: NCI In Vivo Anticancer Drug Screen. Data for tumor model L1210 Leukemia (intraperitoneal) in B6D2F1 (BDF1) mice
Conditions: endpoint: mean survival time, higher = longer survival
Summary of the method: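 Mice bearing the transplanted tumor received compound or vehicle. Survival of the treated group was divided by that of the vehicle-treated control group to give the ratio.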

[1] = dose: 100.0 mg/kg/injection, schedule: Q01DX009 (ip), vehicle: Klucel (hydroxypropylcellulose) (HPC)
[2] = dose: 200.0 mg/kg/injection, schedule: Q01DX009 (ip), vehicle: Klucel (hydroxypropylcellulose) (HPC)
[3] = dose: 400.0 mg/kg/injection, schedule: Q01DX009 (ip), vehicle: Klucel (hydroxypropylcellulose) (HPC)
[4] = dose: 100.0 mg/kg/injection, schedule: Q01DX009 (ip), vehicle: saline with Tween-80
[5] = dose: 200.0 mg/kg/injection, schedule: Q01DX009 (ip), vehicle: saline with Tween-80
[6] = dose: 100.0 mg/kg/injection, schedule: Q04DX002 (ip), vehicle: Klucel (hydroxypropylcellulose) (HPC)
[7] = dose: 200.0 mg/kg/injection, schedule: Q04DX002 (ip), vehicle: Klucel (hydroxypropylcellulose) (HPC)
[8] = dose: 100.0 mg/kg/injection, schedule: Q04DX003 (ip), vehicle: saline with Tween-80
[9] = dose: 200.0 mg/kg/injection, schedule: Q04DX003 (ip), vehicle: saline with Tween-80
[10] = dose: 400.0 mg/kg/injection, schedule: Q04DX003 (ip), vehicle: saline with Tween-80

Measured: T/C

O=c1c[n+](Cc2ccc(Cl)cc2)[nH]o1
inactive: dose: 100.0 mg/kg/injection, schedule: Q01DX Z (ip), vehicle: saline 100 % of control | dose: 200.0 mg/kg/injection, schedule: Q01DX Z (ip), vehicle: saline 100 % of control

CSc1ccc(NC(=O)/C=C/c2ccccc2)cc1
inactive: [1] 106 % of control | [2] 112 % of control | [3] 102 % of control

O=C(C[n+]1cccc(C(=O)NCc2ccccc2)c1)NCc1ccccc1
inactive: dose: 25.0 mg/kg/injection, schedule: Q01DX009 (ip), vehicle: saline sonified 100 % of control | dose: 50.0 mg/kg/injection, schedule: Q01DX009 (ip), vehicle: saline sonified 97 % of control | dose: 110.0 mg/kg/injection, schedule: Q01DX009 (ip), vehicle: saline sonified 95 % of control

CN1CC2=C(C1)C(N(C(=O)c1ccc(-c3ccccc3)cc1)C(=O)c1ccc(-c3ccccc3)cc1)=NCN2
inactive: [1] 97 % of control | [2] 94 % of control | [3] 94 % of control

CCCCCCCCCCCCCCCC(=O)OC(C)COC (configuration not stated)
inactive: dose: 50.0 mg/kg/injection, schedule: Q01DX009 (ip), vehicle: saline with Tween-80 108 % of control | dose: 100.0 mg/kg/injection, schedule: Q01DX001 (ip), vehicle: other 102 % of control | [4] 98 % of control | dose: 100.0 mg/kg/injection, schedule: Q04DX003 (ip), vehicle: other 111 % of control | dose: 200.0 mg/kg/injection, schedule: Q01DX001 (ip), vehicle: other 94 % of control | [5] 98 % of control | dose: 200.0 mg/kg/injection, schedule: Q04DX003 (ip), vehicle: other 107 % of control | dose: 400.0 mg/kg/injection, schedule: Q01DX001 (ip), vehicle: other 101 % of control | dose: 400.0 mg/kg/injection, schedule: Q04DX003 (ip), vehicle: other 110 % of control

Cc1ccc(Cl)cc1NC(=O)Oc1ccc(Cl)cc1C
inactive: dose: 12.5 mg/kg/injection, schedule: Q01DX009 (ip), vehicle: Klucel (hydroxypropylcellulose) (HPC) 95 % of control | dose: 25.0 mg/kg/injection, schedule: Q01DX009 (ip), vehicle: Klucel (hydroxypropylcellulose) (HPC) 95 % of control | dose: 50.0 mg/kg/injection, schedule: Q01DX009 (ip), vehicle: Klucel (hydroxypropylcellulose) (HPC) 97 % of control | [1] 96 % of control

Cc1cccc(NC(=O)c2c(Cl)c(Cl)c(Cl)c(Cl)c2C(=O)O)c1C
inactive: [6] 91 % of control | [7] 100 % of control

CCCN=C(C)c1ccccc1O
inactive: dose: 100.0 mg/kg/injection, schedule: Q04DX003 (ip), vehicle: acetone 97 % of control | dose: 200.0 mg/kg/injection, schedule: Q04DX003 (ip), vehicle: acetone 95 % of control

COc1ccc(CCN2C(=O)C=CC2=O)cc1OC
inactive: dose: 5.0 mg/kg/injection, schedule: Q04DX003 (ip), vehicle: saline 97 % of control | dose: 10.0 mg/kg/injection, schedule: Q04DX003 (ip), vehicle: saline 96 % of control | dose: 20.0 mg/kg/injection, schedule: Q04DX003 (ip), vehicle: saline 100 % of control

CC(C)NC(=O)Nc1cccc(O)c1
inactive: [8] 96 % of control | [9] 89 % of control | [10] 89 % of control

O=C(Nc1ccc([N+](=O)[O-])cc1O)c1ccccc1
inactive: [8] 92 % of control | [9] 92 % of control

NC(=S)N/N=C(\c1ccc(Cl)cc1)C1CC1
inactive: dose: 3.0 mg/kg/injection, schedule: Q01DX Z (ip), vehicle: carboxymethylcellulose (CMC) 96 % of control | dose: 7.0 mg/kg/injection, schedule: Q01DX Z (ip), vehicle: carboxymethylcellulose (CMC) 96 % of control | dose: 7.0 mg/kg/injection, schedule: Q01DX Z (sc), vehicle: carboxymethylcellulose (CMC) 121 % of control | dose: 15.0 mg/kg/injection, schedule: Q01DX Z (ip), vehicle: carboxymethylcellulose (CMC) 97 % of control | dose: 15.0 mg/kg/injection, schedule: Q01DX Z (sc), vehicle: carboxymethylcellulose (CMC) 120 % of control

ClC1CCCCCCCCC1
inactive: dose: 50.0 mg/kg/injection, schedule: Q01DX001 (ip), vehicle: saline 122 % of control | dose: 100.0 mg/kg/injection, schedule: Q01DX001 (ip), vehicle: saline 95 % of control | dose: 400.0 mg/kg/injection, schedule: Q01DX001 (ip), vehicle: saline 92 % of control

CSc1ccc(OC(=O)Nc2cccc3ccccc23)cc1
inactive: [6] 96 % of control | [7] 104 % of control | dose: 400.0 mg/kg/injection, schedule: Q04DX002 (ip), vehicle: Klucel (hydroxypropylcellulose) (HPC) 101 % of control

Cn1cc([N+](=O)[O-])ccc1=O
inactive: dose: 100.0 mg/kg/injection, schedule: Q04DX003 (ip), vehicle: Klucel (hydroxypropylcellulose) (HPC) 110 % of control | dose: 200.0 mg/kg/injection, schedule: Q04DX003 (ip), vehicle: Klucel (hydroxypropylcellulose) (HPC) 116 % of control | dose: 400.0 mg/kg/injection, schedule: Q04DX003 (ip), vehicle: Klucel (hydroxypropylcellulose) (HPC) 121 % of control

O=C1NC2NC(=O)NC2N1 (configuration not stated)
inactive: [4] 98 % of control | [8] 112 % of control | [5] 115 % of control | [9] 98 % of control | dose: 400.0 mg/kg/injection, schedule: Q01DX009 (ip), vehicle: saline with Tween-80 96 % of control | [10] 101 % of control

CCCNS(=O)(=O)c1cccc(C(N)=S)c1
inactive: dose: 100.0 mg/kg/injection, schedule: Q01DX001 (ip), vehicle: Klucel (hydroxypropylcellulose) (HPC) 101 % of control | dose: 200.0 mg/kg/injection, schedule: Q01DX001 (ip), vehicle: Klucel (hydroxypropylcellulose) (HPC) 100 % of control | dose: 400.0 mg/kg/injection, schedule: Q01DX001 (ip), vehicle: Klucel (hydroxypropylcellulose) (HPC) 103 % of control

O=C(O)COc1c(Br)cc(F)cc1Br
inactive: dose: 100.0 mg/kg/injection, schedule: Q04DX002 (ip), vehicle: other 103 % of control | dose: 200.0 mg/kg/injection, schedule: Q04DX002 (ip), vehicle: other 109 % of control and 90 % of control | dose: 400.0 mg/kg/injection, schedule: Q04DX002 (ip), vehicle: other 100 % of control and 86 % of control
